Structures can show the parent of a compound that is named as a salt. Bounds are passed on as bounds.

For orientation: melting point means the temperature, or range, at which the solid turns liquid. As for `Cc1c(N2CC3CC3(CN)C2)c(F)cc2c(=O)n(N)c(=O)n(C3CC3)c12.Cl` (stereo not drawn), the melting point is 189 to 194 °C.

`Cl.N#Cc1c(N2CCC(N)C2)c(F)cc2c(=O)n(N)c(=O)n(C3CC3)c12` (stereo not drawn) showed a melting point of 277 °C.

In turn, `CN[C@@H](C)[C@@H]1CCN(c2c(F)cc3c(=O)n(N)c(=O)n(C4CC4)c3c2C)C1.Cl` registered a melting point of 153 to 155 °C.

With `NC1C2CN(c3c(F)cc4c(=O)n(N)c(=O)n(C5CC5)c4c3Cl)CC12` (stereo not drawn) (as salt: hydrochloride), the melting point is 111 to 114 °C.

As for `CC1CCc2c(N3CC[C@H](N)C3)c(F)cc3c(=O)n(N)c(=O)n1c23` (stereo partly drawn) (as salt: hydrochloride), the melting point is 202 to 204 °C.

`CC1(CN)CCN(c2c(F)cc3c(=O)n(N)c(=O)n(C4CC4)c3c2Cl)C1` (stereo not drawn) (as salt: hydrochloride) [Compound 3, 3-Amino-7-[3-(aminomethyl)-3-methylpyrrolidin-1-yl]-8-chloro-1-cyclopropyl-6-fluoro-1H-quinazoline-2,4-dione hydrochloride] had a melting point of 166 to 168 °C.

With `CN[C@H]1CCN(c2c(F)cc3c(=O)n(N)c(=O)n(C4CC4)c3c2Cl)C1` (as salt: hydrochloride) [Compound 5, 3-Amino-7-((S)-3-N-methylaminopyrrolidin-1-yl)-8-chloro-1-cyclopropyl-6-fluoro-1H-quinazoline-2,4-dione hydrochloride], the melting point lay within 118 to 120 °C.

`N[C@H]1CCN(c2c(F)c(F)c3c(=O)n(N)c(=O)n(C4CC4)c3c2F)C1` (as salt: hydrochloride) [Compound 9, 3-Amino-7-((S)-3-aminopyrrolidin-1-yl)-1-cyclopropyl-5,6,8-trifluoro-1H-quinazoline-2,4-dione hydrochloride]: the melting point was 271 °C (dec.).

As to `Nc1c(F)c(N2CC[C@H](N)C2)c(F)c2c1c(=O)n(N)c(=O)n2C1CC1` (as salt: hydrochloride) [Compound 11, 7-((S)-3-Aminopyrrolidin-1-yl)-1-cyclopropyl-3,5-diamino-6,8-difluoro-1H-quinazoline-2,4-dione hydrochloride], the melting point was 215 to 218 °C (dec.).

The compound `CC(C)n1c(=O)n(N)c(=O)c2cc(F)c(N3CCC(N)C3)c(Cl)c21` (stereo not drawn) (as salt: trifluoroacetate) had a melting point of 151 °C.

The compound `C[C@@H]1CN(c2c(F)cc3c(=O)n(N)c(=O)n(C4CC4)c3c2Cl)C[C@H]1CN.Cl` (relative stereo) registered a melting point of 215 to 217 °C.

Compound `COc1c(N2C[C@@H](CN)[C@H](C)C2)c(F)cc2c(=O)n(N)c(=O)n(C3CC3)c12.Cl` (relative stereo) had a melting point of 189 °C.

Compound `Cc1c(N2C[C@@H](CN)[C@H](C)C2)c(F)cc2c(=O)n(N)c(=O)n(C3CC3)c12.Cl` (relative stereo) displayed a melting point of 220 °C.

`COc1c(N2C[C@@H](C)[C@H](N)C2)c(F)cc2c(=O)n(N)c(=O)n(C3CC3)c12.Cl` (relative stereo) returned a melting point of 209 °C.

As to `COc1c(N2C[C@@H](CN)[C@@H](F)C2)c(F)cc2c(=O)n(N)c(=O)n(C3CC3)c12.Cl` (relative stereo), the melting point lay within 169 to 179 °C.

Take `COc1c(N2C[C@@H](CN)[C@H](F)C2)c(F)cc2c(=O)n(N)c(=O)n(C3CC3)c12.Cl` (relative stereo): the melting point fell in the range of 144 to 147 °C.

For the compound `Cl.NC[C@@H]1CN(c2nc3c(cc2F)c(=O)n(N)c(=O)n3C2CC2)C[C@H]1C(F)(F)F` (relative stereo), the melting point lay in the range of 214 to 216 °C.

As to `Cl.N[C@@H]1CN(c2c(F)cc3c(=O)n(N)c(=O)n(C4CC4)c3c2Cl)C[C@H]1C(F)(F)F` (relative stereo), the melting point lay within 181 to 183 °C.

In turn, `Cl.N[C@@H]1CN(c2c(F)cc3c(=O)n(N)c(=O)n(C4CC4)c3c2Cl)C[C@H]1c1ccccc1` (relative stereo) showed a melting point of 174 to 175 °C.

As for `Cl.N[C@@H]1CN(c2c(F)cc3c(=O)n(N)c(=O)n(C4CC4)c3c2Cl)C[C@H]1c1ccc(O)cc1` (relative stereo), the melting point was > 200 °C.

`COc1c(N2C[C@@H](CN)[C@H](C(F)(F)F)C2)c(F)cc2c(=O)n(N)c(=O)n(C3CC3)c12.Cl` (relative stereo) returned a melting point of 205 to 207 °C.

For the compound `NC(=O)C1CCCN(c2c(F)cc3c(=O)n(N)c(=O)n(C4CC4)c3c2Cl)C1` (stereo not drawn) [Compound 58, 1-(3-Amino-8-chloro-1-cyclopropyl-6-fluoro-2,4-dioxo-1,2,3,4-tetrahydroquinazolin-7-yl)piperidine-3-carboxylic acid amide], the melting point fell in the range of 141 to 144 °C.

Compound `Nn1c(=O)c2cc(F)c(N3CCC4(CCNC4)C3)c(Cl)c2n(C2CC2)c1=O` (stereo not drawn) [Compound 62, 3-Amino-8-chloro-1-cyclopropyl-7-(2,7-diazaspiro[4.4]non-2-yl)-6-fluoro-1H-quinazoline-2,4-dione] returned a melting point of 147 to 149 °C.

`Nn1c(=O)c2cc(F)c(N3CCC(=NO)C3)c(Cl)c2n(C2CC2)c1=O` [Compound 65, 3-Amino-8-chloro-1-cyclopropyl-6-fluoro-7-(3-hydroxyimino-pyrrolidin-1-yl)-1H-quinazoline-2,4-dione] gave a melting point of 147 to 149 °C.

For the compound `CS(=O)(=O)NCC1CCN(c2c(F)cc3c(=O)n(N)c(=O)n(C4CC4)c3c2Cl)C1` (stereo not drawn) [Compound 74, N-[1-(3-Amino-8-chloro-1-cyclopropyl-6-fluoro-2,4-dioxo-1,2,3,4-tetrahydroquinazolin-7-yl)pyrrolidin-3-ylmethyl]methanesulfonamide], the melting point fell in the range of 109 to 112 °C.

Compound `Cc1c(N2CC[C@H]([C@@H](C)N)C2)c(F)cc2c(=O)n(N)c(=O)n(C3CC3)c12.Cl` [Compound 75] showed a melting point of 194 to 196 °C.

For `COc1c(N2CC[C@H]([C@@H](C)N)C2)c(F)cc2c(=O)n(N)c(=O)n(C3CC3)c12.Cl` [Compound 133], the melting point lay within 228 to 230 °C.

For the origin of these results see US7582627B2, “3-aminoquinazolin-2,4-dione antibacterial agents” (Warner-Lambert Company, priority 2000, dated 2009).
